Test results taken from patent publication US7405231B2, “Oxidized thioether derivatives” (Hoffmann-La Roche Inc., priority 2004, dated 2008).

Legend:
HER2 = target: T1, HER2 (Homo sapiens, UniProt P04626); test: Inhibition of HER2 phosphorylation in Calu3 tumor cell line; format: cell-based; conditions: Calu3 cells; for percentage of inhibition of phosphorylation compared with the reference compound: 1 μM compound, versus Example 4, p. 88, WO 01/77107; for inhibition at 1 µM: Calu-3, read-out: Percent inhibition of HER2-phosphorylation
T1 construct: endogenous in cells; host or cells: Calu3 tumor cell line
Experimental: Inhibition of HER2 phosphorylation in Calu3 tumor cell line.
2×10^5 Calu3 cells per well were plated in a 12-well plate. After 4 days cells were starved for 16 h in DMEM(Dulbecco's Modified Eagle Medium)/0.5% FCS/1% Glutamine. During this time cells were incubated with 1 μM of a compound according to the present invention. Afterwards cells were lysed in lyses buffer containing 1% Triton, 10% Glycerol, 1 mM EGTA, 1.5 mM MgCl2, 150 mM NaCl, 50 mM Hepes pH 7.5, 1 mM PMSF, 10 μg/mL Aprotinin and […] Orthovanadate. Cell lysates were analyzed on a SDS PAGE and after transfer to a nitrocellulose membrane detected with a rabbit antibody specifically recognizing the pY 1248 in HER2 (Cell Signaling). After incubation with an anti rabbit antibody coupled to POD (Biorad) (Peroxidase available from Biorad, Munich, Germany) signals were detected by chemiluminescence (ECL,Amersham). Inhibition of HER2 phosphorylation is calculated as percentage of the DMSO treated control. This percentage is calculated according to the following formula: Inhibition in %=100-(Phosphorylated-HER2-Signal of Test Sample* 100/Phosphorylated-HER2-Signal DMSO-control).

[1] = compound concentration 1 μM, 16 h, pY 1248 in HER2, percentage of the DMSO treated control

T1 sequence (P04626 23-1255): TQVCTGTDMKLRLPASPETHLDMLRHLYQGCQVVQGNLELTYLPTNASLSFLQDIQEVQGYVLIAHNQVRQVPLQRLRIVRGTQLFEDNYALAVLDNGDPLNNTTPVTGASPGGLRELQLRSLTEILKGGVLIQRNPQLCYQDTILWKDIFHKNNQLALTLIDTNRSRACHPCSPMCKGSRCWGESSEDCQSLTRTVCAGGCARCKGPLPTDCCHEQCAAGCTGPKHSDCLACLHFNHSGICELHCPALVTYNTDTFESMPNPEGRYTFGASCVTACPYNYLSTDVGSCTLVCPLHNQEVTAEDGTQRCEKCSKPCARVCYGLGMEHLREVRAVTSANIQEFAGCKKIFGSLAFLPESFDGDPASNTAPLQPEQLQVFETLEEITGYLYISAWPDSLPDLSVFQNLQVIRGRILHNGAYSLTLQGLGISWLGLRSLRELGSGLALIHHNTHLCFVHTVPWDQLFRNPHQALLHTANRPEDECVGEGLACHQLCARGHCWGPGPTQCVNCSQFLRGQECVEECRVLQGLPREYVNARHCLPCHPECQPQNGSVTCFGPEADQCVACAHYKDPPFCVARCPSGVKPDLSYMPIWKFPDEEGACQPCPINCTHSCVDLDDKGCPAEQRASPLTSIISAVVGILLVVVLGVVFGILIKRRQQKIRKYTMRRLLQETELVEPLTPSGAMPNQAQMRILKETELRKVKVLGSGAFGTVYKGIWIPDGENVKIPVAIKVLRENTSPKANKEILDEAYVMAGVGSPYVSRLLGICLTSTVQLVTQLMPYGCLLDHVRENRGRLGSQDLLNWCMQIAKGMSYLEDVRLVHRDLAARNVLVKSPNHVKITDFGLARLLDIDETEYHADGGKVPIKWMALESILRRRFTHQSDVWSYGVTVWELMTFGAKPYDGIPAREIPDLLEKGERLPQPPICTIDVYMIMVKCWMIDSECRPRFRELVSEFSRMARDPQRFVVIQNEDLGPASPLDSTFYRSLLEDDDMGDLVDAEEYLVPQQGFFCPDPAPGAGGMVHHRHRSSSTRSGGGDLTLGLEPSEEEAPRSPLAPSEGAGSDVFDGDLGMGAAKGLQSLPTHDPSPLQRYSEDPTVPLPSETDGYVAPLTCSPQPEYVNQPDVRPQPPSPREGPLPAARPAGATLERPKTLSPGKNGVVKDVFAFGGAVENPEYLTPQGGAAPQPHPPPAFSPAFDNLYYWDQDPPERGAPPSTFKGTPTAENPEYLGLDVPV

Structure (SMILES) | percentage of inhibition of phosphorylation compared with the reference compound (HER2) | Percent inhibition of HER2-phosphorylation (HER2; [1]) | inhibition at 1 µM (HER2; [1]) | melting point
[O-][S+](c1ccc(C=Cc2nc(COc3ccc(CCCCn4ccnc4)cc3)co2)cc1)C(F)(F)F (stereo not shown) [example 1, 4-[4-(4-Imidazol-1-yl-butyl)-phenoxymethyl]-2′-[2-(4-trifluoromethanesulfinyl-phenyl)-vinyl]-oxozole] | higher percentage of inhibition of phosphorylation | 92.5% |  | 
O=S(=O)(c1ccc(/C=C/c2nc(COc3ccc(CCCCn4ccnn4)cc3)co2)cc1)C(F)(F)F [example 5, 1-[4-(4-{2-[(E)-2-(-4-Trifluoromethanesulfonyl-phenyl)-vinyl]-oxazol-4-ylmethoxy}-phenyl)-butyl]-1H-[1,2,3]triazole] | higher percentage of inhibition of phosphorylation |  | 82.9% | 133 to 135 °C
[O-][S+](c1ccc(/C=C/c2nc(COc3ccc(CCCCc4nn[nH]n4)cc3)co2)cc1)C(F)(F)F (stereo not shown) [example 7, 5-[4-(4-{2-[(E)-2-(-4-Trifluoromethanesulfinyl-phenyl)-vinyl]-oxazol-4-ylmethoxy}-phenyl)-butyl]-2H-tetrazole] | higher percentage of inhibition of phosphorylation |  | 52.9% | 
Cc1cc(OCc2coc(C=Cc3ccc(S(=O)(=O)C(F)(F)F)cc3)n2)ccc1CCCCn1ccnn1 [Example 20, 1-[4-(2-Methyl-4-{2-[2-(4-trifluoromethanesulfonyl-phenyl)-vinyl]-oxazol-4-ylmethoxy}-phenyl)-butyl]-1H-[1,2,3]triazole] |  |  |  | 140 to 142 °C
O=S(=O)(NCCn1ccnn1)c1ccc(OCc2coc(C=Cc3ccc([S+]([O-])C(F)(F)F)cc3)n2)cc1 (stereo not shown) [Example 13, N-(2-[1,2,3] Triazol-1-yl-ethyl)-4-{2-[2-(4-trifluoromethanesulfinyl-phenyl)-vinyl]-oxazol-4-ylmethoxy}-benzenesulfonamide] |  |  |  | 172 to 174 °C
[O-][S+](c1ccc(/C=C/c2nc(COc3ccc(CCCCn4ccnn4)cc3)co2)cc1)C(F)(F)F (stereo not shown) [example 4, 1-[4-(4-{2-[(E)-2-(-4-Trifluoromethanesulfinyl-phenyl)-vinyl]-oxazol-4-ylmethoxy}-phenyl)-butyl]-1H-[1,2,3]triazole] | higher percentage of inhibition of phosphorylation |  | 94.4% | 122 to 123 °C
[O-][S+](c1ccc(/C=C/c2nc(COc3ccc(CCCCn4ccnn4)cc3)cs2)cc1)C(F)(F)F (stereo not shown) [example 15, 1-[4-(4-{2-[(E)-2-(4-Trifluoromethanesulfinyl-phenyl)-vinyl]-thiazol-4-ylmethoxy}-phenyl)-butyl]-1H-[1,2,3]triazole] | higher percentage of inhibition of phosphorylation |  | 73.6% | 118 to 119 °C
[O-][S+](c1ccc(/C=C/c2nc(COc3ccc(CNCCn4ccnn4)cc3)co2)cc1)C(F)(F)F (stereo not shown) [Example 3, (2-[1,2,3]Triazol-1-yl-ethyl)-(4-{2-[(E)-2-(4-trifluoromethanesulfinyl-phenyl)-vinyl]-oxazol-4-ylmethoxy}-benzyl)-amine] |  |  |  | 111 to 113 °C
